{"source": "patent US11807650B2", "about": "“NMDA receptor modulators and uses thereof” (Novartis AG, priority 2016, dated 2023)"}
{"target": "T1, human GRIN1 (transcript variant NR1-3) and GRIN2D expressed in Xenopus oocytes (Homo sapiens, UniProt O15399)", "T1 construct": "GenScript (GRIN2D synthesis) SC115601; host or cells: Xenopus oocytes injected with cRNA (1 GluN1 : 2 GluN2)", "T1 sequence (O15399 28-1336, other chains not shown)": "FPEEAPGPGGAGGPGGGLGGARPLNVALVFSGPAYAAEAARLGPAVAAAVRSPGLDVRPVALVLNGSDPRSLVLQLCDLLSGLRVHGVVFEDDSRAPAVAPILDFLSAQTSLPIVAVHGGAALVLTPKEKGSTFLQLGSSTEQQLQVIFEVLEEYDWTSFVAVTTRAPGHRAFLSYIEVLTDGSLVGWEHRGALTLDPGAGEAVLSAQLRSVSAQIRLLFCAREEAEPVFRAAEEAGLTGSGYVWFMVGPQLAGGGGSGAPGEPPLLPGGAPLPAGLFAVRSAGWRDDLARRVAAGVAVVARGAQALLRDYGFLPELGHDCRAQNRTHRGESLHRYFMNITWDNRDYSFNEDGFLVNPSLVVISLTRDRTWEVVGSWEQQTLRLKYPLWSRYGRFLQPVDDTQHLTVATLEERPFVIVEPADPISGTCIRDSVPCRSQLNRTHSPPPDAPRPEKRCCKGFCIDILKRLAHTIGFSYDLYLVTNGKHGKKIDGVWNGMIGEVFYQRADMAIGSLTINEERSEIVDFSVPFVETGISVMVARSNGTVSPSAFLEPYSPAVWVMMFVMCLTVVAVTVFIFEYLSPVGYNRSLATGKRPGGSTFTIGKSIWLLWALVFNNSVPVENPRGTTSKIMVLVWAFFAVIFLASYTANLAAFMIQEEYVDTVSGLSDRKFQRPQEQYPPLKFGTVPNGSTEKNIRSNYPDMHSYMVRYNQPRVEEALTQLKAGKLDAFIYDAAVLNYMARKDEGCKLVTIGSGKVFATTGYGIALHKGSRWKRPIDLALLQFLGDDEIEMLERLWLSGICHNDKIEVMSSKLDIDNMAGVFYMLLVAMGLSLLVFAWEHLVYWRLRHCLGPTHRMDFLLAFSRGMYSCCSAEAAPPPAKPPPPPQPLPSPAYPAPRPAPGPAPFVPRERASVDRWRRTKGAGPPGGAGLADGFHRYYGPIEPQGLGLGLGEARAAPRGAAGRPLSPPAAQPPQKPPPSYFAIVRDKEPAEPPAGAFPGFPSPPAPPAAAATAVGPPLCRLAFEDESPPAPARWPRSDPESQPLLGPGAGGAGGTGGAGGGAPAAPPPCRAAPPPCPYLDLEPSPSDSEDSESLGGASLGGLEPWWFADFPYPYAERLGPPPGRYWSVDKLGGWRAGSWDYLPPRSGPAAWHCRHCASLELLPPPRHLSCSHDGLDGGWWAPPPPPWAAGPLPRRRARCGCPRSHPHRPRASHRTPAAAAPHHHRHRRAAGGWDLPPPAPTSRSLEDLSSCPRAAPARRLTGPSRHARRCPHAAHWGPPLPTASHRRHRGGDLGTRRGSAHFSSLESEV", "test": "NR2D oocyte potentiation assay (two-electrode voltage clamp)", "type": "cell-based", "conditions": "10 uM test compound; glutamate and glycine 10 μM each; holding potential −40 mV", "summary_of_the_method": "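Xenopus oocytes were defolliculated with collagenase, then injected with 50 nL of cRNA encoding human GluN1 (NR1-3 variant) and GluN2D mixed 1:2 and kept 72 h at 16° C. Two-electrode voltage clamp at −40 mV recorded currents; after 10 μM glutamate plus 10 μM glycine reached plateau, test compound was added until a new plateau formed.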", "units": {"activation at 10 µM": "%"}}
{"smiles": "CC1CCn2c(nc(-c3ccc(C(C)(C)C)nc3)c(C#N)c2=O)S1", "note": "(centres unmarked) [Example 93, 8-(6-(tert-butyl)pyridin-3-yl)-2-methyl-6-oxo-3,4-dihydro-2H,6H-pyrimido[2,1-b][1,3]thiazine-7-carbonitrile]", "activation at 10 µM": "500 to 1000"}
{"smiles": "COCC1CSc2nc(-c3ccc(C(C)(C)C)nc3)c(C#N)c(=O)n2C1", "note": "(centres unmarked) [Example 123, 8-(6-(tert-butyl)pyridin-3-yl)-3-(methoxymethyl)-6-oxo-3,4-dihydro-2H,6H-pyrimido[2,1-b][1,3]thiazine-7-carbonitrile]", "activation at 10 µM": "500 to 1000"}
{"smiles": "CC(C)(C)c1ccc(-c2cc3n(c(=O)c2C#N)CCCS3)cn1", "note": "[Example 70, 8-(6-(tert-butyl)pyridin-3-yl)-6-oxo-3,4-dihydro-2H,6H-pyrido[2,1-b][1,3]thiazine-7-carbonitrile]", "activation at 10 µM": "> 1000"}
{"smiles": "CN(C)C(C)(C)c1ccc(-c2nc3n(c(=O)c2C#N)CCCS3)cn1", "note": "[Example 128, 8-(6-(2-(dimethylamino)propan-2-yl)pyridin-3-yl)-6-oxo-3,4-dihydro-2H,6H-pyrimido[2,1-b][1,3]thiazine-7-carbonitrile]", "activation at 10 µM": "< 10"}
{"smiles": "CC1CSc2nc(-c3ccc(N4CC(C)(F)C4)nc3)c(C#N)c(=O)n2C1", "note": "(centres unmarked) [Example 51, 8-(6-(3-fluoro-3-methylazetidin-1-yl)pyridin-3-yl)-3-methyl-6-oxo-3,4-dihydro-2H,6H-pyrimido[2,1-b][1,3]thiazine-7-carbonitrile]", "NR2D Oocyte % Potentiation @ 10 uM": "Inhibitor"}
{"smiles": "COC(=O)C1CSc2nc(-c3cnc(C(C)(C)C)nc3)c(C#N)c(=O)n2C1", "note": "(centres unmarked) [Example 89, methyl 8-(2-(tert-butyl)pyrimidin-5-yl)-7-cyano-6-oxo-3,4-dihydro-2H,6H-pyrimido[2,1-b][1,3]thiazine-3-carboxylate]", "activation at 10 µM": "100 to 500"}
{"smiles": "CC(=O)NC[C@H]1CSc2nc(-c3cnc(C(C)(C)C)c(F)c3)c(C#N)c(=O)n2C1", "note": "[Example 168, (R)-N-((8-(6-(tert-butyl)-5-fluoropyridin-3-yl)-7-cyano-6-oxo-3,4-dihydro-2H,6H-pyrimido[2,1-b][1,3]thiazin-3-yl)methyl)acetamide]", "activation at 10 µM": "500 to 1000"}
{"smiles": "CC1CSc2nc(-c3ccc(C45CC(C4)C5)nc3)c(C#N)c(=O)n2C1", "note": "(centres unmarked) [Example 148, 8-(6-(bicyclo[1.1.1]pentan-1-yl)pyridin-3-yl)-3-methyl-6-oxo-3,4-dihydro-2H,6H-pyrimido[2,1-b][1,3]thiazine-7-carbonitrile]", "activation at 10 µM": "100 to 500"}
{"smiles": "CCN1CSc2nc(-c3ccc(C(C)(C)C)nc3)c(C#N)c(=O)n2C1", "note": "[Example 9, 8-(6-(tert-butyl)pyridin-3-yl)-3-ethyl-6-oxo-3,4-dihydro-2H,6H-pyrimido[2,1-b][1,3,5]thiadiazine-7-carbonitrile]", "activation at 10 µM": "10 to 100"}
{"smiles": "C[C@@H]1CSc2nc(-c3ccc(C(C)(C)N(C)C)nc3)c(C#N)c(=O)n2C1", "note": "[Example 134, (S)-8-(6-(2-(dimethylamino)propan-2-yl)pyridin-3-yl)-3-methyl-6-oxo-3,4-dihydro-2H,6H-pyrimido[2,1-b][1,3]thiazine-7-carbonitrile]", "activation at 10 µM": "< 10"}
{"smiles": "CC1(C)CN(c2ccc(-c3nc4n(c(=O)c3C#N)CCCS4)cn2)C1", "note": "[Example 54, 8-(6-(3,3-dimethylazetidin-1-yl)pyridin-3-yl)-6-oxo-3,4-dihydro-2H,6H-pyrimido[2,1-b][1,3]thiazine-7-carbonitrile]", "NR2D Oocyte % Potentiation @ 10 uM": "Inhibitor"}
{"smiles": "CC(C)(C)c1ncc(-c2nc3n(c(=O)c2C#N)C[C@@H](CF)CS3)cn1", "note": "[Example 141, (S)-8-(2-(tert-butyl)pyrimidin-5-yl)-3-(fluoromethyl)-6-oxo-3,4-dihydro-2H,6H-pyrimido[2,1-b][1,3]thiazine-7-carbonitrile]", "activation at 10 µM": "500 to 1000"}
{"smiles": "CN1CSc2nc(-c3ccc(C(C)(C)C)cc3)c(C#N)c(=O)n2C1", "note": "[Example 6, 8-(4-(tert-butyl)phenyl)-3-methyl-6-oxo-3,4-dihydro-2H,6H-pyrimido[2,1-b][1,3,5]thiadiazine-7-carbonitrile]", "activation at 10 µM": "10 to 100"}
{"smiles": "CC(C)(CF)c1ccc(-c2nc3n(c(=O)c2C#N)CCCS3)cn1", "note": "[Example 152, 8-(6-(1-fluoro-2-methylpropan-2-yl)pyridin-3-yl)-6-oxo-3,4-dihydro-2H,6H-pyrimido[2,1-b][1,3]thiazine-7-carbonitrile]", "activation at 10 µM": "100 to 500"}
{"smiles": "C[C@H]1CSc2nc(-c3cnc(C(C)(C)C)c(F)c3)c(C#N)c(=O)n2C1", "note": "[Example 98, (R)-8-(6-(tert-butyl)-5-fluoropyridin-3-yl)-3-methyl-6-oxo-3,4-dihydro-2H,6H-pyrimido[2,1-b][1,3]thiazine-7-carbonitrile]", "activation at 10 µM": "> 1000"}
{"smiles": "CC(C)(C)c1ncc(-c2nc3n(c(=O)c2C#N)C[C@@H](CO)CS3)cc1F", "note": "[Example 157, (S)-8-(6-(tert-butyl)-5-fluoropyridin-3-yl)-3-(hydroxymethyl)-6-oxo-3,4-dihydro-2H,6H-pyrimido[2,1-b][1,3]thiazine-7-carbonitrile]", "activation at 10 µM": "> 1000"}
{"smiles": "CC(CF)(CF)c1ccc(-c2nc3n(c(=O)c2C#N)CCCS3)cn1", "note": "[Example 156, 8-(6-(1,3-difluoro-2-methylpropan-2-yl)pyridin-3-yl)-6-oxo-3,4-dihydro-2H,6H-pyrimido[2,1-b][1,3]thiazine-7-carbonitrile]", "activation at 10 µM": "100 to 500"}
{"smiles": "CC(C)(C)c1ncc(-c2nc3n(c(=N)c2C#N)CCCS3)cc1F", "note": "[Example 40, 8-(6-(tert-butyl)-5-fluoropyridin-3-yl)-6-imino-3,4-dihydro-2H,6H-pyrimido[2,1-b][1,3]thiazine-7-carbonitrile]", "activation at 10 µM": "> 1000"}
{"smiles": "COc1cc(-c2nc3n(c(=O)c2C#N)CCCS3)cnc1C(C)(C)C", "note": "[Example 60, 8-(6-(tert-butyl)-5-methoxypyridin-3-yl)-6-oxo-3,4-dihydro-2H,6H-pyrimido[2,1-b][1,3]thiazine-7-carbonitrile]", "activation at 10 µM": "500 to 1000"}
{"smiles": "COC(=O)C1CSc2nc(-c3ccc(C(C)(C)C)nc3)c(C#N)c(=O)n2C1", "note": "(centres unmarked) [Example 86, methyl 8-(6-(tert-butyl)pyridin-3-yl)-7-cyano-6-oxo-3,4-dihydro-2H,6H-pyrimido[2,1-b][1,3]thiazine-3-carboxylate]", "activation at 10 µM": "100 to 500"}
{"smiles": "CC1CCc2nc(-c3ccc(C(C)(C)C)nc3)c(C#N)c(=O)n2C1", "note": "(centres unmarked) [Example 34, 2-(6-(tert-butyl)pyridin-3-yl)-7-methyl-4-oxo-6,7,8,9-tetrahydro-4H-pyrido[1,2-a]pyrimidine-3-carbonitrile]", "activation at 10 µM": "10 to 100"}
{"smiles": "CC(C)(C)c1ccc(-c2nc3n(c(=O)c2C#N)C[C@@H](CO)CS3)cn1", "note": "[Example 129, (S)-8-(6-(tert-butyl)pyridin-3-yl)-3-(hydroxymethyl)-6-oxo-3,4-dihydro-2H,6H-pyrimido[2,1-b][1,3]thiazine-7-carbonitrile]", "activation at 10 µM": "> 1000"}
{"smiles": "CC(C)(C)c1ncc(-c2cc3n(c(=O)c2C#N)CCCS3)cc1F", "note": "[Example 102, 8-(6-(tert-butyl)-5-fluoropyridin-3-yl)-6-oxo-3,4-dihydro-2H,6H-pyrido[2,1-b][1,3]thiazine-7-carbonitrile]", "activation at 10 µM": "> 1000"}
{"smiles": "COCOC[C@H]1CSc2nc(-c3cnc(C(C)(C)C)c(F)c3)c(C#N)c(=O)n2C1", "note": "[Example 171, (S)-8-(6-(tert-butyl)-5-fluoropyridin-3-yl)-3-((methoxymethoxy)methyl)-6-oxo-3,4-dihydro-2H,6H-pyrimido[2,1-b][1,3]thiazine-7-carbonitrile]", "activation at 10 µM": "> 1000"}
{"smiles": "C=C1CSc2nc(-c3ccc(C(C)(C)C)nc3)c(C#N)c(=O)n2C1", "note": "[Example 114, 8-(6-(tert-butyl)pyridin-3-yl)-3-methylene-6-oxo-3,4-dihydro-2H,6H-pyrimido[2,1-b][1,3]thiazine-7-carbonitrile]", "activation at 10 µM": "> 1000"}
{"smiles": "COCOCC1CSc2nc(-c3cnc(C(C)(C)C)c(F)c3)c(C#N)c(=O)n2C1", "note": "(centres unmarked) [Example 170, 8-(6-(tert-butyl)-5-fluoropyridin-3-yl)-3-((methoxymethoxy)methyl)-6-oxo-3,4-dihydro-2H,6H-pyrimido[2,1-b][1,3]thiazine-7-carbonitrile]", "activation at 10 µM": "> 1000"}
{"smiles": "N#Cc1c(-c2ccc(C3(C(F)(F)F)CC3)cc2)nc2n(c1=O)CCCS2", "note": "[Example 47, 6-oxo-8-(4-(1-(trifluoromethyl)cyclopropyl)phenyl)-3,4-dihydro-2H,6H-pyrimido[2,1-b][1,3]thiazine-7-carbonitrile]", "activation at 10 µM": "500 to 1000"}
{"smiles": "Cc1c(-c2ccc(C(C)(C)C)nc2)nc2n(c1=O)CCCS2", "note": "[Example 31, 8-(6-(tert-butyl)pyridin-3-yl)-7-methyl-3,4-dihydro-2H,6H-pyrimido[2,1-b][1,3]thiazin-6-one]", "activation at 10 µM": "10 to 100"}
{"smiles": "CCOC(=O)c1ccc(-c2nc3n(c(=O)c2C#N)CCCS3)cn1", "note": "[Example 82, ethyl 5-(7-cyano-6-oxo-3,4-dihydro-2H,6H-pyrimido[2,1-b][1,3]thiazin-8-yl)picolinate]", "NR2D Oocyte % Potentiation @ 10 uM": "Inhibitor"}
{"smiles": "CC(C)(C)c1ccc(-c2nc3n(c(=O)c2C#N)CC(CF)CS3)cn1", "note": "(centres unmarked) [Example 88, 8-(6-(tert-butyl)pyridin-3-yl)-3-(fluoromethyl)-6-oxo-3,4-dihydro-2H,6H-pyrimido[2,1-b][1,3]thiazine-7-carbonitrile]", "activation at 10 µM": "500 to 1000"}
{"smiles": "CC(C)(C)c1ccc(-c2nc3n(c(=O)c2C#N)CC(CO)CS3)cn1", "note": "(centres unmarked) [Example 87, 8-(6-(tert-butyl)pyridin-3-yl)-3-(hydroxymethyl)-6-oxo-3,4-dihydro-2H,6H-pyrimido[2,1-b][1,3]thiazine-7-carbonitrile]", "activation at 10 µM": "500 to 1000"}
{"smiles": "COCSCC1COc2nc(-c3cnc(C(C)(C)C)c(F)c3)c(C#N)c(=O)n2C1", "note": "(centres unmarked) [Example 165, 8-(6-tert-butyl-5-fluoropyridin-3-yl)-3-{[(methoxymethyl)sulfanyl]methyl}-6-oxo-2H,3H, 4H,6H-pyrimido [2,1-b][1,3] oxazine-7-carbonitrile]", "activation at 10 µM": "> 1000"}
